From patent publication US20060217360A1, “Tubulysin biosynthesis gene” (priority 2002, published 2006)
In brackets after ≈: the same amount, converted by molar mass.

What was measured:
Assay type in all cases: cell-based
Botrytis cineria = test: Agar diffusion test, spectrum of action on fungi; settings: 20 μg per test disc of 6 mm diameter
Coprinus cinereus = test: Agar diffusion test, spectrum of action on fungi; settings: 20 μg per test disc of 6 mm diameter
HL-60 (ATCC-CCL 240) = test: Cytostatic action on human cancer cell line; settings: HL-60 human cancer cell line
Pythinum debaryanum = test: Agar diffusion test, spectrum of action on fungi; settings: 20 μg per test disc of 6 mm diameter
L929, mouse (ATCC CCL1) = test: Cytostatic action on animal cell line
K-562 (ATCC CCL 243) = test: Cytostatic action on human cancer cell line; settings: K-562 human cancer cell line
KB-3-1 (DSM ACC 158) = test: Cytostatic action on human cancer cell line; settings: KB-3-1 human cancer cell line
Aspergillus niger = test: Agar diffusion test, spectrum of action on fungi; settings: 20 μg per test disc of 6 mm diameter
[1] = system: Pt K2, Potorous tridactylis (ATCC CCL 56); test: Cytostatic action on animal cell line

Row | SMILES | Inhibition zone (Botrytis cineria) [mm] | Inhibition zone (Coprinus cinereus) [mm] | IC50 (HL-60 (ATCC-CCL 240)) [ng/mL] | Inhibition zone (Pythinum debaryanum) [mm] | IC50 (L929, mouse (ATCC CCL1)) [ng/mL] | IC50 (K-562 (ATCC CCL 243)) [ng/mL] | IC50 (KB-3-1 (DSM ACC 158)) [ng/mL] | Inhibition zone (Aspergillus niger) [mm] | IC50 [1] [ng/mL]
1 | CC[C@H](C)[C@H](NC(=O)[C@H]1CCCCN1C)C(=O)N(COC(=O)CC(C)C)[C@H](C[C@@H](OC(C)=O)c1nc(C(=O)N[C@@H](Cc2ccc(O)cc2)C[C@H](C)C(=O)O)cs1)C(C)C [Tubulysin A] | 23 | 20 | 0.04 (≈ 0.0474 nM) | 20 | 0.2 (≈ 0.237 nM) | 0.1 (≈ 0.118 nM) | 0.01 (≈ 0.0118 nM) | 20 | 0.2 (≈ 0.237 nM)
2 | CCCC(=O)OCN(C(=O)[C@@H](NC(=O)[C@H]1CCCCN1C)[C@@H](C)CC)[C@H](C[C@@H](OC(C)=O)c1nc(C(=O)N[C@@H](Cc2ccc(O)cc2)C[C@H](C)C(=O)O)cs1)C(C)C [Tubulysin B] | 18 |  | 0.08 (≈ 0.0964 nM) |  | 0.4 (≈ 0.482 nM) | 0.2 (≈ 0.241 nM) | 0.02 (≈ 0.0241 nM) | 18 | 0.2 (≈ 0.241 nM)
3 | CCC(=O)OCN(C(=O)[C@@H](NC(=O)[C@H]1CCCCN1C)[C@@H](C)CC)[C@H](C[C@@H](OC(C)=O)c1nc(C(=O)N[C@@H](Cc2ccc(O)cc2)C[C@H](C)C(=O)O)cs1)C(C)C [Tubulysin C] |  |  | 0.4 (≈ 0.49 nM) |  | 2 (≈ 2.45 nM) | 1.5 (≈ 1.84 nM) | 0.1 (≈ 0.123 nM) |  | 2 (≈ 2.45 nM)
